From US20240301319A1, “PERFUMING COMPOSITIONS” (FIRMNICH SA, priority 2017, published 2024)
Where two headings read alike, the source gives them in different places. One block for each compound: values may come before it.

Assays:
[1] = Volatility of perfuming compounds (Tables 4 to 10), with top/middle/bottom note type; type: physicochemical
Summary of the method: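 Volatility is expressed in μg/l in air. Top notes are 70,000 to 100 μg/l, middle notes 99 to 50 μg/l, and bottom notes 49 to 0.1 μg/l. Compounds are grouped by olfactive family: watery, green, fruity, citrus, sweet, gourmand and woody.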

[2] = Odor threshold and odor value of perfuming compounds (Tables 4 to 10)
[3] = note type (Top/Middle/Bottom) by volatility, perfuming compounds having a green note
[4] = perfuming compounds having a green note
[5] = Table 8, perfuming compounds having a sweet note
[6] = Table 8, perfuming compounds having a sweet note, note type by volatility
[7] = Table 4, watery note, top, middle or bottom note
[8] = Table 4, watery note, equals volatility divided by odor threshold
[9] = Table 6, perfuming compounds having a fruity note
[10] = Table 6, perfuming compounds having a fruity note, note type by volatility
[11] = Table 7, citrus note, top, middle or bottom note
[12] = Table 7, citrus note, equals volatility divided by odor threshold
[13] = Table 9, perfuming compounds having a gourmand note, note type by volatility
[14] = Table 10, perfuming compounds having a woody note, note type by volatility

Type [1, 3]: Top
Volatility (μg/l air) [1, 4]: 22184.00 μg/l air
Compound: CCCCCCC=O [HEPTANAL]
Odor Threshold (μg/l air) [2, 4]: 2.03E−03 μg/l air

Volatility [1, 5]: 396.50 μg/l air
Type [1, 6]: Top
Compound: CC1=C(O)C(=O)CC1 [2-HYDROXY-3-METHYL-2-CYCLOPENTEN-1-ONE]
Odor Threshold [2, 5]: 3.82E−04 μg/l air
Odor Value [2, 5]: 1.04E+06

Volatility (μg/l air) ([1]; Table 4, watery note): 18.99 μg/l air
Type [1, 3]: Bottom
Volatility (μg/l air) [1, 4]: 18.99 μg/l air
Compound: COc1ccc(CC(C)C=O)cc1 (racemic) [(+−)-3-(4-methoxyphenyl)-2-methylpropanal]
Type [1, 7]: bottom (perfuming compounds having a volatility ranging from 49 to 0.1 μg/l in air are referred to as “bottom notes”)
Odor Threshold (μg/l air) ([2]; Table 4, watery note): 9.79E−03 μg/l air
Odor Value [2, 8]: 1.94E+03
Odor Threshold (μg/l air) [2, 4]: 9.79E−03 μg/l air

Volatility [1, 9]: 26.88 μg/l air
Type [1, 10]: Bottom
Volatility (μg/l air) ([1]; Table 7, citrus note): 26.88 μg/l air
Type [1, 11]: Bottom
Compound: C=CCCCCCCCCO [9-DECEN-1-OL]
Odor Threshold [2, 9]: 8.92E−03 μg/l air
Odor Value [2, 9]: 3.01E+03
Odor Threshold (μg/l air) ([2]; Table 7, citrus note): 8.92E−03 μg/l air
Odor Value [2, 12]: 3.01E+03

Volatility [1, 9]: 159.75 μg/l air
Volatility [1, 5]: 159.75 μg/l air
Type [1, 6]: Top
Volatility ([1]; Table 9, gourmand note): 159.75 μg/l air
Type [1, 13]: Top
Compound: OCCc1ccccc1 [2-PHENYLETHANOL]
Type [1, 10]: TOP (perfuming compounds having a volatility ranging from 70,000 to 100 μg/l in air are referred to as “top notes”)
Odor Threshold [2, 5]: 1.02E−04 μg/l air
Odor Value [2, 5]: 1.56E+06
Odor Threshold ([2]; Table 9, gourmand note): 1.02E−04 μg/l air

Volatility [1, 9]: 9.61 μg/l air
Type [1, 10]: Bottom
Volatility [1, 5]: 9.61 μg/l air
Type [1, 6]: Bottom
Volatility ([1]; Table 9, gourmand note): 9.61 μg/l air
Type [1, 13]: Bottom
Compound: CCCCCC1CCCC(=O)O1 (racemic) [(+−)-6-pentyltetrahydro-2H-pyran-2-one]
Odor Threshold [2, 9]: 3.72E−05 μg/l air
Odor Value [2, 9]: 2.58E+05
Odor Threshold [2, 5]: 3.72E−05 μg/l air
Odor Value [2, 5]: 2.58E+05
Odor Threshold ([2]; Table 9, gourmand note): 3.72E−05 μg/l air

Volatility [1, 9]: 61.65 μg/l air
Type [1, 10]: Middle
Compound: COC(=O)/C=C/c1ccccc1 [METHYL (E)-3-PHENYL-2-PROPENOATE]
Odor Threshold [2, 9]: 3.13E−03 μg/l air
Odor Value [2, 9]: 1.97E+04

Volatility [1, 9]: 4.39 μg/l air
Type [1, 10]: Bottom
Compound: CCC(=O)OCC(C)(C)OC(C)C1CCCC(C)(C)C1 (single isomer, unassigned; (+))
Odor Threshold [2, 9]: 3.69E−04 μg/l air
Odor Value [2, 9]: 1.19E+04

Type [1, 14]: Top
Volatility ([1]; Table 10, woody note): 216.42 μg/l air
Compound: CCC(=O)O[C@H]1C[C@@H]2CC[C@@]1(C)C2(C)C
Odor Threshold ([2]; Table 10, woody note): 4.55E−02 μg/l air

Volatility [1, 9]: 439.00 μg/l air
Volatility (μg/l air) ([1]; Table 7, citrus note): 439.00 μg/l air
Type [1, 11]: Top
Compound: CCCCCC(C#N)CCC (racemic) [(+−)-2-propylheptanenitrile]
Type [1, 10]: TOP (perfuming compounds having a volatility ranging from 70,000 to 100 μg/l in air are referred to as “top notes”)
Odor Threshold (μg/l air) ([2]; Table 7, citrus note): 7.83E−02 μg/l air
Odor Value [2, 12]: 5.61E+03

Type [1, 3]: Bottom
Volatility (μg/l air) [1, 4]: 4.34 μg/l air
Compound: CC/C=C\CCOC(=O)c1ccccc1O [(3Z)-3-hexen-1-yl salicylate]
Odor Threshold (μg/l air) [2, 4]: 3.23E−04 μg/l air

Volatility (μg/l air) ([1]; Table 7, citrus note): 691.34 μg/l air
Type [1, 11]: Top
Compound: CCCCC/C=C/CCC=O [(E)-4-DECENAL]
Odor Threshold (μg/l air) ([2]; Table 7, citrus note): 7.59E−05 μg/l air
Odor Value [2, 12]: 9.11E+06

Volatility [1, 9]: 2814.34 μg/l air
Volatility (μg/l air) ([1]; Table 7, citrus note): 2814.34 μg/l air
Type [1, 11]: Top
Compound: CCCCCCCOC(C)=O [heptyl acetate]
Type [1, 10]: TOP (perfuming compounds having a volatility ranging from 70,000 to 100 μg/l in air are referred to as “top notes”)
Odor Threshold (μg/l air) ([2]; Table 7, citrus note): 1.32E−01 μg/l air
Odor Value [2, 12]: 2.14E+04

Volatility [1, 9]: 1.59 μg/l air
Type [1, 10]: Bottom
Compound: CC1COCc2cc3c(cc21)C(C)(C)C(C)C3(C)C (racemic)
Odor Threshold [2, 9]: 2.62E−04 μg/l air
Odor Value [2, 9]: 6.08E+03

Volatility [1, 5]: 8.73 μg/l air
Type [1, 6]: Bottom
Compound: CC(C)Cc1ccc2ccccc2n1 [2-ISOBUTYLQUINOLINE]
Odor Threshold [2, 5]: 1.93E−04 μg/l air
Odor Value [2, 5]: 4.53E+04

Compound: CCCCCCCCCCCC#N [DODECANENITRILE]
Volatility (μg/l air) ([1]; Table 4, watery note): 56.74 μg/l air
Type [1, 7]: middle (perfuming compounds having a volatility ranging from 99 to 50 μg/l in air are referred to as “middle notes”)
Odor Threshold (μg/l air) ([2]; Table 4, watery note): 3.20E−06 μg/l air
Odor Value [2, 8]: 1.77E+07

Type [1, 3]: Top
Volatility (μg/l air) [1, 4]: 3030.11 μg/l air
Compound: C=CC(O)CCCCC (racemic) [(+−)-1-octen-3-ol]
Odor Threshold (μg/l air) [2, 4]: 1.77E−03 μg/l air

Type [1, 3]: Top
Volatility (μg/l air) [1, 4]: 2534.77 μg/l air
Compound: CCCC(S)CCOC (racemic) [(+−)-1-METHOXY-3-HEXANETHIOL]
Odor Threshold (μg/l air) [2, 4]: 1.92E−07 μg/l air

Volatility (μg/l air) ([1]; Table 7, citrus note): 76.57 μg/l air
Type [1, 11]: Middle
Compound: CC(C)CCCC(C)CCO (racemic)
Odor Threshold (μg/l air) ([2]; Table 7, citrus note): 4.59E−02 μg/l air
Odor Value [2, 12]: 1.67E+03

Type [1, 14]: Bottom
Volatility ([1]; Table 10, woody note): 35.41 μg/l air
Compound: CC(=O)/C=C/C1=C(C)CCCC1(C)C [(3E)-4-(2,6,6-trimethyl-1-cyclohexen-1-yl)-3-buten-2-one]
Odor Threshold ([2]; Table 10, woody note): 3.58E−05 μg/l air

Volatility (μg/l air) ([1]; Table 7, citrus note): 89.88 μg/l air
Type [1, 11]: Middle
Compound: CITRONELLOL (A) + GERANIOL (B)
Odor Threshold (μg/l air) ([2]; Table 7, citrus note): 7.69E−04 μg/l air

Volatility (μg/l air) ([1]; Table 4, watery note): 79.79 μg/l air
Compound: CC(C)CC1CC(C)(O)CCO1 (racemic) [(+−)-TETRAHYDRO-2-ISOBUTYL-4-METHYL-4(2H)-PYRANOL]
Type [1, 7]: middle (perfuming compounds having a volatility ranging from 99 to 50 μg/l in air are referred to as “middle notes”)
Odor Threshold (μg/l air) ([2]; Table 4, watery note): 1.35E−02 μg/l air
Odor Value [2, 8]: 5.91E+03

Volatility [1, 5]: 17700.00 μg/l air
Type [1, 6]: Top
Volatility ([1]; Table 9, gourmand note): 17700.00 μg/l air
Type [1, 13]: Top
Type [1, 14]: Top
Volatility ([1]; Table 10, woody note): 17700.00 μg/l air
Type [1, 3]: Top
Volatility (μg/l air) [1, 4]: 17700.00 μg/l air
Compound: CCCCO [1-BUTANOL]
Odor Threshold [2, 5]: 8.70E−02 μg/l air
Odor Value [2, 5]: 2.03E+05
Odor Threshold ([2]; Table 9, gourmand note): 8.70E−02 μg/l air
Odor Threshold ([2]; Table 10, woody note): 8.70E−02 μg/l air
Odor Threshold (μg/l air) [2, 4]: 8.70E−02 μg/l air

Type [1, 3]: Top
Volatility (μg/l air) [1, 4]: 23116.66 μg/l air
Compound: C=CC1(C)CCCC(C)(C)O1 (racemic)
Odor Threshold (μg/l air) [2, 4]: 1.64E−01 μg/l air

Type [1, 14]: Bottom
Volatility ([1]; Table 10, woody note): 14.41 μg/l air
Compound: CC(=O)O[C@@H]1CC[C@@H]2C(C)(C)CCC[C@@]2(C)C1 (racemic)
Odor Threshold ([2]; Table 10, woody note): 4.19E−04 μg/l air

Volatility (μg/l air) ([1]; Table 7, citrus note): 4.70 μg/l air
Type [1, 11]: Bottom
Compound: CC(C)=CCCC(C)CCOCC=O (racemic)
Odor Threshold (μg/l air) ([2]; Table 7, citrus note): 8.95E−04 μg/l air
Odor Value [2, 12]: 5.26E+03

Type [1, 14]: Middle
Volatility ([1]; Table 10, woody note): 60.02 μg/l air
Compound: CC(=O)OCCC1=CCC2CC1C2(C)C (stereo not shown)
Odor Threshold ([2]; Table 10, woody note): 1.10E−01 μg/l air

Volatility [1, 9]: 1235.24 μg/l air
Volatility [1, 5]: 1235.24 μg/l air
Type [1, 6]: Top
Volatility ([1]; Table 9, gourmand note): 1235.24 μg/l air
Type [1, 13]: Top
Type [1, 3]: Top
Volatility (μg/l air) [1, 4]: 1235.24 μg/l air
Compound: C=CCOC(=O)CCCCCC [ALLYL HEPTANOATE]
Type [1, 10]: TOP (perfuming compounds having a volatility ranging from 70,000 to 100 μg/l in air are referred to as “top notes”)
Odor Threshold [2, 5]: 1.75E−02 μg/l air
Odor Value [2, 5]: 7.06E+04
Odor Threshold ([2]; Table 9, gourmand note): 1.75E−02 μg/l air
Odor Threshold (μg/l air) [2, 4]: 1.75E−02 μg/l air

Volatility [1, 5]: 143.53 μg/l air
Type [1, 6]: Top
Volatility ([1]; Table 9, gourmand note): 143.53 μg/l air
Type [1, 13]: Top
Compound: C/C=C/C(=O)[C@@H]1[C@@H](C)C=CCC1(C)C (racemic)
Odor Threshold [2, 5]: 1.70E−05 μg/l air
Odor Value [2, 5]: 8.44E+06
Odor Threshold ([2]; Table 9, gourmand note): 1.70E−05 μg/l air

Volatility [1, 5]: 11.28 μg/l air
Type [1, 6]: Bottom
Volatility ([1]; Table 9, gourmand note): 11.28 μg/l air
Type [1, 13]: Bottom
Compound: C/C=C/c1ccc(O)c(OC)c1 [2-methoxy-4-[(1E)-1-propen-1-yl]phenol]
Odor Threshold [2, 5]: 6.63E−06 μg/l air
Odor Value [2, 5]: 1.70E+06
Odor Threshold ([2]; Table 9, gourmand note): 6.63E−06 μg/l air

Volatility [1, 5]: 15.81 μg/l air
Type [1, 6]: Bottom
Volatility ([1]; Table 9, gourmand note): 15.81 μg/l air
Type [1, 13]: Bottom
Compound: CCC(=O)/C=C/C1=C(C)CCCC1(C)C
Odor Threshold [2, 5]: 1.16E−04 μg/l air
Odor Value [2, 5]: 1.37E+05
Odor Threshold ([2]; Table 9, gourmand note): 1.16E−04 μg/l air

Compound: CC(C)OCCc1ccccc1 [(2-ISOPROPOXYETHYL)BENZENE]
Volatility (μg/l air) [1]: 1714.82 μg/l air
Type [1, 3]: Top
Odor Threshold (μg/l air) [2, 4]: 1.65E−03 μg/l air

Type [1, 3]: Top
Volatility (μg/l air) [1, 4]: 195.24 μg/l air
Compound: COc1nccnc1CCCC(C)C
Odor Threshold (μg/l air) [2, 4]: 1.18E−07 μg/l air
